# Reference: patent publication US7273848B2, “Apolipoprotein A-I agonists and their use to treat dyslipidemic disorders” (priority 1997, dated 2007)
# “And” between values parts separate entries of the source, which are not always exact repeats. Equal entries are not always repeated. No end group written: not given here.
# System: HDL cholesterol
# Assay: HDL cholesterol in rabbits after injection of phospholipid/peptide complex
# Type: in vivo, rabbit
# Settings: for Increase in HDL Cholesterol (%): 8 mg/kg i.v. as peptide/DPPC complexes
# Procedure: Small discoidal particles consisting of phospholipid (DPPC) and peptide 146 (SEQ ID NO:146) were prepared following the cholate dialysis method. The phospholipid was dissolved in chloroform and dried under a stream of nitrogen. The peptide was dissolved in buffer (saline) at a concentration of 1-2 mg/ml. The lipid film was redissolved in buffer containing cholate (43° C.) and the peptide solution was added at a 3-1 phospholipid/peptide ratio. The mixture was incubated overnight at 43° C. and then dialyzed at 43° C. (24 hr.), room temperature (24 hr.) and 4° C. (24 hr.), with three changes of buffer (large volumes) at temperature point. The complexes were filter sterilized (0.22μ) for injection and storage at 4° C.
# Male New Zealand White rabbits (2.5-3 kg) were injected intravenously with a dose of phospholipid/peptide complex (8 mg/kg bodyweight peptide 146 (SEQ ID NO:146) or 10 mg/kg bodyweight ApoA-I, expressed as peptide or protein content) in a single bolus injection not exceeding 10-15 ml. The animals were slightly sedated before the manipulations. Blood samples (collected on EDTA) were taken before and 5, 15, 30, 60, 240 and 1440 minutes after injection. The hematocrit (Hct) was determined for each sample. Samples were aliquoted and stored at −20° C. before analysis.
# Plasma Lipids. The total plasma cholesterol, plasma triglycerides and plasma phospholipids were determined enzymatically using commercially available assays according to the manufacturer's protocols (Boehringer Mannheim, Mannheim, Germany and Biomerieux, 69280, Marcy-l'étoile, France).
# Lipoprotein Profiles. The plasma lipoprotein profiles of the fractions obtained after the separation of the plasma into its lipoprotein fractions were determined by spinning in a sucrose density gradient. The fractions were collected and in each individual fraction the phospholipid and cholesterol content was measured enzymatically.
sequence,measurement,setting,value
PVLELFENLLERLLDALQKKLK [peptide 146],duration of the increase in cholesterol of the HDL cholesterol fractions,"8 mg/kg as peptide/DPPC complexes, apparent at 5 min.",approximately 24 hr
same,Increase in HDL Cholesterol (%),5 min.,31.3%
same,Increase in HDL Cholesterol (%),15 min.,60.4%
same,Increase in HDL Cholesterol (%),60 min.,42.9%
same,Increase in HDL Cholesterol (%),"240 min., 8 mg/kg",90% and 90.2%
same,Increase in HDL Cholesterol (%),1440 min.,71.2%
same,mobilization of peripheral cholesterol (in words),peptide/DPPC complexes 8 mg/kg,induces rapid and efficient mobilization of peripheral cholesterol
